Results as given in PubChem BioAssay (NCI).
“And” between values parts separate entries of the source, which are not always exact repeats. Equal values may be shown once.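 Tested at 5 concentrations; 48 h exposure; 96-well plates; endpoints linearly interpolated, else capped at highest concentration. Here, GI50 denotes the concentration required for 50% inhibition of growth. The concentration for full growth arrest is given as TGI.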

Experiments:
Assay in all cases: NCI anticancer screen, dose series, 48 h
T-47D breast = tested on: T-47D breast
COLO 205 colon = tested on: COLO 205 colon
SF-295 CNS = tested on: SF-295 CNS
PC-3 prostate = tested on: PC-3 prostate
BT-549 breast = tested on: BT-549 breast
LOX IMVI melanoma = tested on: LOX IMVI melanoma
NCI-H226 lung = tested on: NCI-H226 lung
OVCAR-4 ovarian = tested on: OVCAR-4 ovarian
SF-539 CNS = tested on: SF-539 CNS
786-0 renal = tested on: 786-0 renal

SMILES	GI50 (T-47D breast)	TGI (T-47D breast)	GI50 (COLO 205 colon)	TGI (COLO 205 colon)	GI50 (SF-295 CNS)	TGI (SF-295 CNS) [µM]	GI50 (PC-3 prostate)	TGI (PC-3 prostate)	GI50 (BT-549 breast)	TGI (BT-549 breast)	GI50 (LOX IMVI melanoma)	TGI (LOX IMVI melanoma)	GI50 (NCI-H226 lung)	TGI (NCI-H226 lung) [µM]	GI50 (OVCAR-4 ovarian)	TGI (OVCAR-4 ovarian)	GI50 (SF-539 CNS)	TGI (SF-539 CNS)	GI50 (786-0 renal)	TGI (786-0 renal)
O=C(O)c1ccc2c(c1)nc(Nc1cccc(Cl)c1)c1ccncc12	2.83 µM and 1.33 µM	> 39.1 µM and 5.71 µM	4.21 µM and 3.67 µM	15.1 µM and > 10 µM	2.74 µM and 3.17 µM	> 42.9	2.88 µM and 3.57 µM	22 µM and > 10 µM	2.48 µM and 2.29 µM	10.9 µM and 8.33 µM	2.04 µM and 2.7 µM	10.7 µM and > 10 µM	1.77 µM and 2.77 µM	> 20.3	2.09 µM and 4.08 µM	21.6 µM and > 10 µM	2.05 µM and 1.58 µM	8.45 µM and 6.12 µM	3.7 µM and 4.2 µM	18.6 µM and > 10 µM
CCc1nc(N)nc(N)c1-c1ccc(NCCc2ccccc2)c([N+](=O)[O-])c1		> 52.8 µM		16.9 µM		32.9		> 71.6 µM		42.9 µM		> 100 µM		> 69.7		46.2 µM		18 µM		17 µM
CN(C[C@@H]1COCCO1)S(=O)(=O)Nc1ccc2ccc3ncc(-c4cnn(C)c4)cc3c(=O)c2c1	5.54 µM	> 100 µM	19.3 µM	> 100 µM	0.632 µM	> 34.2	5.67 µM	> 100 µM	2.01 µM	> 100 µM	3.37 µM	> 100 µM	2.62 µM	> 100	5.65 µM	> 100 µM	1.57 µM	7.91 µM	6.04 µM	> 100 µM
O=C(CCCCCCSc1nc(-c2ccc(Cl)cc2)cc(-c2ccc(Cl)cc2)n1)NO	1.39 µM	9.13 µM	1.55 µM	8.04 µM	2.34 µM	9.84	1.54 µM	16.3 µM	1.92 µM	36.2 µM	1.28 µM	3.75 µM	1.71 µM	17.5	1.57 µM	> 50 µM	1.53 µM	5.57 µM	1.59 µM	6.32 µM
CCCCCC/C=C\CCCCCCCCCC1=CC(=O)C=C(OC)C1=O		4.86 µM		3.24 µM		13.2		11 µM		13.1 µM		13.9 µM		11.1		9.22 µM		6.74 µM		17 µM
CC(=O)[O][Hg][c]1ccccc1	0.163 µM	0.382 µM	0.65 µM	1.67 µM	1.61 µM	3.57	1.41 µM	3.21 µM	0.453 µM	1.66 µM	0.227 µM	0.696 µM	1.12 µM	4.81	0.43 µM	2.24 µM	1.42 µM	2.83 µM	1.43 µM	2.82 µM
Cn1c(=S)c2[nH]c(SCCN3CCCC3)nc2n(C)c1=O		> 100 µM		> 100 µM		> 100		> 100 µM		> 100 µM		> 100 µM		> 100		> 100 µM		> 100 µM		> 100 µM
O=C(OCc1ccc2c(Cl)cc(Cl)c(O)c2n1)c1cc2ccccc2[nH]1	1.49 µM	4.35 µM	0.834 µM	2.45 µM	1.64 µM	3.31	0.407 µM	0.936 µM	0.265 µM	0.845 µM	0.17 µM	0.332 µM	1.48 µM	3.07	0.596 µM	1.45 µM	0.587 µM	1.48 µM	0.275 µM	0.833 µM
NC(=O)/C=C/NC(=O)/C=N\O		> 100 µM		> 100 µM		> 100		> 100 µM		> 100 µM		> 100 µM		> 100		> 100 µM		> 100 µM		> 100 µM
COc1ccc(-c2cc(=O)c3c(O)cc(C)cc3o2)cc1OC		> 100 µM		> 100 µM		> 100		> 100 µM		> 100 µM		> 100 µM		> 100		> 100 µM		> 100 µM		> 100 µM
C#Cc1cccc(Nc2nc3ccc([N+](=O)[O-])cc3nc2Nc2cccc(C#C)c2)c1	0.259 µM	0.889 µM	0.172 µM	0.345 µM	0.172 µM	0.416	0.22 µM	1.17 µM	0.294 µM	1.2 µM	0.172 µM	0.328 µM	0.251 µM	1.2	0.218 µM	0.982 µM	0.247 µM	0.738 µM	0.226 µM	0.73 µM
COc1ccc2c(c1)[n+](=O)c(C(=O)/C=C/c1cc(OC)c(OC)c(OC)c1)c(C)n2[O-]	22.8 µM	> 100 µM	65 µM	> 100 µM	27.1 µM	> 100	27.3 µM	> 100 µM	12.6 µM	28.9 µM	16 µM	47.6 µM	26.3 µM	82.4	> 100 µM	> 100 µM	14.4 µM	29.7 µM	12.8 µM	30.7 µM
COc1ccc(-c2csc(-c3cc(Cl)cc(Cl)c3Cl)n2)cc1	40.3 µM	> 100 µM	> 100 µM	> 100 µM	57.8 µM	> 100	52.2 µM	> 100 µM	92.2 µM	> 100 µM	> 100 µM	> 100 µM	78 µM	> 100	53.8 µM	> 100 µM	41.8 µM	> 100 µM	> 100 µM	> 100 µM
COc1ccc(-c2c(-c3cc(OC)c4c(c3)OCO4)noc2N)cc1	0.0422 µM	47.1 µM	0.0347 µM	0.122 µM	0.0197 µM	23.8	0.0436 µM	60.1 µM	0.568 µM	38.7 µM	0.0629 µM	> 51.5 µM	0.0883 µM	4.07	0.204 µM	> 56.4 µM	0.0339 µM	11.7 µM	0.0845 µM	24.1 µM
